Results as given in US10556865B2, “Synergistic herbicidal composition containing certain pyridine or pyrimidine carboxylic acids and certain cereal and rice herbicides” (Dow AgroSciences, LLC, priority 2007, dated 2020).
Where two headings read alike, the source gives them in different places.

Columns and labels:
[1] = system: chickweed (Stellaria media L; STEME); test: Postemergence herbicidal activity of mixtures in cereal crops (greenhouse, visual injury); assay type: in vivo; conditions: for pest or weed control at 17.5 g/ha / pest or weed control at 35 g/ha / pest or weed control at 70 g/ha / pest or weed control at 8.75 g/ha / pest or weed control at 140 g/ha: Stellaria media, post-emergence, read-out: STEME Ob
How it was run: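 Plants grown in greenhouse (~14 h photoperiod, ~18 °C day/17 °C night) to 2nd–3rd true leaf, then sprayed with Compound A or B (methyl ester, TEA or K salt) and a second cereal herbicide alone or combined at 187 L/ha; solvent blank controls. Visual injury (0–100%) scored after 20–22 days; Colby expected values calculated.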

[2] = system: Fimbristylis miliacea (L.) VAHL (FIMMI); test: Herbicidal mixtures for weed control in transplanted paddy rice (in-water application, visual % injury); assay type: in vivo
How it was run: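 Weeds sown in flooded puddled mineral soil (pH ~7.3–7.8, ~1.0% organic matter) and treated at second–third true leaf stage by injecting acetone/2.5% Agri-dex stock into the paddy water. A, C and D dosed as acid equivalent, partner herbicides as active ingredient. Injury scored visually after 3 weeks in greenhouse, 0–100% versus untreated plants.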

SMILES	pest or weed control at 17.5 g/ha ([1]; 17.5 g/ha) [%]	pest or weed control at 35 g/ha ([1]; 35 g/ha) [%]	pest or weed control at 70 g/ha ([1]; 70 g/ha) [%]	% Injury Ob ([2]; 17.5 g/ha alone) [%]	% Injury FIMMI Ob ([2]; Compound A Methyl 17.5 g/ha alone) [%]	STEME Ob ([1]; 70 g/ha alone) [%]	pest or weed control at 8.75 g/ha ([1]; 8.75 g/ha alone) [%]	pest or weed control at 8.75 g/ha ([1]; 8.75 g/ha) [%]	pest or weed control at 17.5 g/ha ([1]; 17.5 g/ha alone) [%]	pest or weed control at 35 g/ha ([1]; 35 g/ha alone) [%]	pest or weed control at 70 g/ha ([1]; 70 g/ha alone) [%]	pest or weed control at 140 g/ha ([1]; 140 g/ha) [%]	% Injury Ob ([2]; 35 g/ha alone) [%]	% Injury Ob ([2]; 70 g/ha alone) [%]	% Injury FIMMI Ob ([2]; Compound A TEA 17.5 g/ha alone) [%]	pest or weed control at 140 g/ha ([1]; 140 g/ha alone) [%]	% Injury FIMMI Ob ([2]; Quinclorac 140 g/ha alone (Compound A Methyl half)) [%]	% Injury FIMMI Ob ([2]; Quinclorac 140 g/ha alone (Compound A TEA half)) [%]
COC(=O)c1nc(-c2ccc(Cl)c(OC)c2F)cc(N)c1Cl [Compound A Methyl, 4-amino-3-chloro-6-(4-chloro-2-fluoro-3-methoxyphenyl)pyridine-2-carboxylic acid methyl ester]	78	90	100	20	20	–	–	–	–	–	–	–	–	–	–	–	–	–
COc1c(Cl)ccc(-c2cc(N)c(Cl)c(C(=O)O)n2)c1F [Compound A TEA, 4-amino-3-chloro-6-(4-chloro-2-fluoro-3-methoxyphenyl)pyridine-2-carboxylic acid]	85	–	–	30	–	93	80	80	85	88	93	65	0	0	30	–	–	–
O=C(O)c1c(Cl)ccc2cc(Cl)cnc12 [Quinclorac]	–	–	–	–	–	–	–	–	–	–	–	–	–	–	–	0	0	0
